Results: patent publication US8188090B2, “Naphthylacetic acids” (Hoffman-La Roche Inc., priority 2008, dated 2012)

Target: T1, human CRTH2 (Homo sapiens, UniProt Q9Y5Y4)
T1 sequence (Q9Y5Y4 1-395): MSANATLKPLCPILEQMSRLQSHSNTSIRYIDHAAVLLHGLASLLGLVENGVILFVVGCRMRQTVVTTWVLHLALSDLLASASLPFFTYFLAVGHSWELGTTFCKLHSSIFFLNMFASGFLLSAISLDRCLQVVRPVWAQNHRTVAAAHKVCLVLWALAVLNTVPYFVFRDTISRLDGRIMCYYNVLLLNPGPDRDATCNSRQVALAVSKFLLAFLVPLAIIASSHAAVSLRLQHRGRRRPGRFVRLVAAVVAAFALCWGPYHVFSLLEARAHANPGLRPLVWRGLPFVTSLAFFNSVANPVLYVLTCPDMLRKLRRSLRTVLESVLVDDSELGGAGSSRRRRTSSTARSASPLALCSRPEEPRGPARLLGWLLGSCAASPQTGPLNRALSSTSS
Experiment: Human CRTH2 Receptor Binding Assay (whole cell, [3H]ramatroban)
Set-up: expressed in transfected cells; host or cells: CHO-K1
Conditions: whole CHO-K1 cells stably expressing human CRTH2 and G-alpha16; 20 nM [3H]ramatroban; 1 hour, room temperature
Source text: A whole cell receptor binding assay using [^3H]ramatroban as the competing radioactive ligand was employed to evaluate the compound binding activity to human CRTH2. The radioactive ligand [^3H]ramatroban was synthesized according to Sugimoto et. al. (Eur. J. Pharmacol. 524, 30-37, 2005) to a specific activity of 42 Ci/mmol.
A cell line stably expressing human CRTH2 was established by transfecting CHO-K1 cells with two mammalian expression vectors that harbored human CRTH2 and G-alpha16 cDNAs, respectively, using FuGene® 6 transfection reagent (from Roche). Stable clones expressing CRTH2 were selected by staining each clone with BM16 (BD Pharmingen™ from BD Biosciences, a division of Becton, Dickinson and Company), which is a rat monoclonal antibody to human CRTH2. The cells were maintained as monolayer cultures in Ham's F-12 medium containing 10% fetal bovine serum, 100 units/mL penicillin, 100 μg/mL streptomycin, 2 mM glutamine, 0.5 mg/mL G418 (geneticin) for CRTH2, and 0.2 mg/mL hygromycin-B (for G-alpha 16). For whole cell receptor binding assay, the monolayer cells were rinsed once with PBS (phosphate buffered saline), dissociated using ethylenediaminetetraacetate (Versene™ EDTA from Lonza Inc.), and suspended in PBS containing 10 mM MgCl2 and 0.06% BSA (bovine serum albumin) at 1.5×10^6 cells/mL.
The binding reactions (0.2 mL) were performed in 96-well plates at room temperature in PBS containing 1.5×10^5 cells, 10 mM MgCl2, 0.06% BSA, 20 nM [^3H]ramatroban, and test compound at various concentrations. After 1 hour of binding reactions, the cells were harvested on GF™/B filter microplates (microtiter plates with embedded glass fiber from PerkinElmer, Inc.) and washed 5 times with PBS using a Filtermate™ Harvester (a cell harvester that harvests and washes cells from microplates from PerkinElmer, Inc.). The radioactivities bound to the cells were determined using a microplate scintillation counter (TopCount® NXT, from PerkinElmer, Inc.) after adding 50 μL of Microscint™ 20 scintillation fluid (from PerkinElmer, Inc.) to each well of the filter plates. The radioactivity from non-specific binding was determined by replacing compound with 10 μM of 15(R)-15-methyl PGD2 (from Cayman Chemical Company) in the reaction mixtures. The radioactivity bound to the cells in the absence of compound (total binding) was determined by replacing compound with 0.25% of DMSO (dimethyl sulfoxide) in the reaction mixture. Specific binding data were obtained by subtracting the radioactivity of non-specific binding from each binding data.
The IC50 value is defined as the concentration of the tested compound that is required for 50% inhibition of total specific binding. In order to calculate the IC50 value, the percent inhibition data were determined for 7 concentrations for each compound. The percent inhibition for a compound at each concentration was calculated according to the following formula, [1-(specific binding in the presence of compound)/(total specific binding)]×100. The IC50 value was then obtained by fitting the percent inhibition data to a sigmoidal dose-response (4 parameter logistic) model in the XLfit® software Excel add-in program [from ID Business Solutions Ltd., model 205, where F(x)=(A+(B−A)/(1+((C/x)^D)))].

Compound | IC50 [nM]
Cc1c(CC(=O)O)cc2ccc(F)cc2c1C(=O)N1CCN(c2ccccc2F)CC1 [Example 2-3, {6-Fluoro-4-[4-(2-fluoro-phenyl)-piperazine-1-carbonyl]-3-methyl-naphthalen-2-yl}-acetic acid] | 151
O=C(O)Cc1cc(OC2CCN(C(=O)C3CC3)CC2)c2cc(F)ccc2c1 [Example 5-4, [4-(1-Cyclopropanecarbonyl-piperidin-4-yloxy)-6-fluoro-naphthalen-2-yl]-acetic acid] | 67.8
Cc1c(CC(=O)O)cc2ccc(F)cc2c1C(=O)N1CCN(c2ccc(F)cc2F)CC1 [Example 2-13, {4-[4-(2,4-Difluoro-phenyl)-piperazine-1-carbonyl]-6-fluoro-3-methyl-naphthalen-2-yl}-acetic acid] | 139
CC(C)S(=O)(=O)N1CCC(Oc2cc(CC(=O)O)cc3ccc(F)cc23)CC1 [Example 4-3, {6-Fluoro-4-[1-(propane-2-sulfonyl)-piperidin-4-yloxy]-naphthalen-2-yl}-acetic acid] | 30.5
O=C(O)Cc1cc(OC2CCN(C(=O)C3CCCC3)CC2)c2cc(F)ccc2c1 [Example 5-5, [4-(1-Cyclopentanecarbonyl-piperidin-4-yloxy)-6-fluoro-naphthalen-2-yl]-acetic acid] | 53.3
Cc1c(CC(=O)O)cc2ccc(F)cc2c1C(=O)N1CCN(c2ccccc2)CC1 [Example 2-4, [6-Fluoro-3-methyl-4-(4-phenyl-piperazine-1-carbonyl)-naphthalen-2-yl]-acetic acid] | 59.1
O=C(O)Cc1cc(OC2CCN(C(=O)c3ccccc3)CC2)c2cc(F)ccc2c1 [Example 5-6, [4-(1-Benzoyl-piperidin-4-yloxy)-6-fluoro-naphthalen-2-yl]-acetic acid] | 13.4
O=C(O)Cc1cc(OC2CCN(C(=O)Nc3ccc(F)cc3)CC2)c2cc(F)ccc2c1 [Example 6-4, {6-Fluoro-4-[1-(4-fluoro-phenylcarbamoyl)-piperidin-4-yloxy]-naphthalen-2-yl}-acetic acid] | 5
Cc1c(CC(=O)O)cc2ccc(F)cc2c1C(=O)N1CC2(C1)CN(S(=O)(=O)Cc1ccccc1)C2 [Example 1-11, [6-Fluoro-3-methyl-4-(6-phenylmethanesulfonyl-2,6-diaza-spiro[3.3]heptane-2-carbonyl)-naphthalen-2-yl]-acetic acid] | 88.3
Cc1c(CC(=O)O)cc2ccc(F)cc2c1C(=O)N1CCN(S(=O)(=O)C(C)C)CC1 [Example 1-4, {6-Fluoro-3-methyl-4-[4-(propane-2-sulfonyl)-piperazine-1-carbonyl]-naphthalen-2-yl}-acetic acid] | 15.5
Cc1c(CC(=O)O)cc2ccc(F)cc2c1C(=O)N1CCN(c2cc(C(F)(F)F)cc(C(F)(F)F)c2)CC1 [Example 2-11, {4-[4-(3,5-Bis-trifluoromethyl-phenyl)-piperazine-1-carbonyl]-6-fluoro-3-methyl-naphthalen-2-yl}-acetic acid] | 201
O=C(O)Cc1cc(C(=O)N2CCN(S(=O)(=O)c3ccccc3)CC2)c2cc(C(F)(F)F)ccc2c1 [Example 1-18, [4-(4-Benzenesulfonyl-piperazine-1-carbonyl)-6-trifluoromethyl-naphthalen-2-yl]-acetic acid] | 6
Cc1c(CC(=O)O)cc2ccc(F)cc2c1C(=O)N1CCN(c2cccc(Cl)c2)CC1 [Example 2-21, {4-[4-(3-Chloro-phenyl)-piperazine-1-carbonyl]-6-fluoro-3-methyl-naphthalen-2-yl}-acetic acid] | 18.9
Cc1c(CC(=O)O)cc2ccc(F)cc2c1C(=O)N1CCN(c2ccc(Cl)cc2)CC1 [Example 2-18, {4-[4-(4-Chloro-phenyl)-piperazine-1-carbonyl]-6-fluoro-3-methyl-naphthalen-2-yl}-acetic acid] | 9.4
COc1ccc(N2CCN(C(=O)c3c(C)c(CC(=O)O)cc4ccc(F)cc34)CC2)cc1 [Example 2-12, {6-Fluoro-4-[4-(4-methoxy-phenyl)-piperazine-1-carbonyl]-3-methyl-naphthalen-2-yl}-acetic acid] | 106
Cc1c(CC(=O)O)cc2ccc(F)cc2c1C(=O)N1CCN(S(=O)(=O)c2ccccc2F)CC1 [Example 1-14, {6-Fluoro-4-[4-(2-fluoro-benzenesulfonyl)-piperazine-1-carbonyl]-3-methyl-naphthalen-2-yl}-acetic acid] | 4.8
Cc1c(CC(=O)O)cc2ccc(F)cc2c1C(=O)N1CCN(S(=O)(=O)C2CCCC2)CC1 [Example 1-8, [4-(4-Cyclopentanesulfonyl-piperazine-1-carbonyl)-6-fluoro-3-methyl-naphthalen-2-yl]-acetic acid] | 6.9
O=C(O)Cc1cc(OC2CCN(S(=O)(=O)c3cccc(F)c3)CC2)c2cc(F)ccc2c1 [Example 4-7, {6-Fluoro-4-[1-(3-fluoro-benzenesulfonyl)-piperidin-4-yloxy]-naphthalen-2-yl}-acetic acid] | 5
CC(C)(C)OC(=O)N1CCC(Oc2cc(CC(=O)O)cc3ccc(F)cc23)CC1 [Example 3-1, 4-(3-Carboxymethyl-7-fluoro-naphthalen-1-yloxy)-piperidine-1-carboxylic acid tert-butyl ester] | 45.1
COc1cc(OC)cc(N2CCN(C(=O)c3c(C)c(CC(=O)O)cc4ccc(F)cc34)CC2)c1 [Example 2-14, {4-[4-(3,5-Dimethoxy-phenyl)-piperazine-1-carbonyl]-6-fluoro-3-methyl-naphthalen-2-yl}-acetic acid] | 65.7
O=C(O)Cc1cc(OC2CCN(C(=O)Cc3ccccc3)CC2)c2cc(F)ccc2c1 [Example 5-10, [6-Fluoro-4-(1-phenylacetyl-piperidin-4-yloxy)-naphthalen-2-yl]-acetic acid] | 2.9
O=C(O)Cc1cc(OC2CCN(C(=O)NCCc3ccccc3)CC2)c2cc(F)ccc2c1 [Example 6-5, [6-Fluoro-4-(1-phenethylcarbamoyl-piperidin-4-yloxy)-naphthalen-2-yl]-acetic acid] | 4
O=C(O)Cc1cc(C(=O)N2CCN(S(=O)(=O)c3ccccc3)CC2)c2cc(OC(F)(F)F)ccc2c1 [Example 1-19, [4-(4-Benzenesulfonyl-piperazine-1-carbonyl)-6-trifluoromethoxy-naphthalen-2-yl]-acetic acid] | 1.7
Cc1c(CC(=O)O)cc2ccc(F)cc2c1C(=O)N1CCN(c2ccccn2)CC1 [Example 2-2, [6-Fluoro-3-methyl-4-(4-pyridin-2-yl-piperazine-1-carbonyl)-naphthalen-2-yl]-acetic acid] | 2.6
Cc1c(CC(=O)O)cc2ccc(F)cc2c1C(=O)N1CCN(S(=O)(=O)c2ccc(F)c(F)c2)CC1 [Example 1-15, {4-[4-(3,4-Difluoro-benzenesulfonyl)-piperazine-1-carbonyl]-6-fluoro-3-methyl-naphthalen-2-yl}-acetic acid] | 2.6
CCS(=O)(=O)N1CCN(C(=O)c2c(C)c(CC(=O)O)cc3ccc(F)cc23)CC1 [Example 1-1, [4-(4-Ethanesulfonyl-piperazine-1-carbonyl)-6-fluoro-3-methyl-naphthalen-2-yl]-acetic acid] | 19.2
O=C(O)Cc1cc(OC2CCN(C(=O)Nc3cccc(F)c3)CC2)c2cc(F)ccc2c1 [Example 6-3, {6-Fluoro-4-[1-(3-fluoro-phenylcarbamoyl)-piperidin-4-yloxy]-naphthalen-2-yl}-acetic acid] | 3
